Laboratory results reported in patent publication US9409905B2, “Antibacterial compounds and methods for use” (PTC THERAPEUTICS, INC., priority 2011, dated 2016).
Converted amounts (≈) assume the structure as drawn.

Legend:
[1] = tested on: Escherichia coli (E. coli) BAS849; test: Antibacterial activity, microbroth dilution MIC (Table 1); format: cell-based; settings: microbroth dilution, super sensitive Gram-negative E. coli BAS849, read-out: MIC, BAS849
How it was run: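 Each strain is exposed to test compound in a microbroth dilution series; visible growth is scored macroscopically, and the lowest growth-free concentration is recorded as MIC in μg/mL.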

[2] = tested on: Staphylococcus aureus (S. aureus) 29213; test: as above; format: cell-based; settings: microbroth dilution, Gram-positive S. aureus 29213, read-out: MIC, 29213
How it was run: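 In a microbroth dilution test, the minimum inhibitory concentration was defined as the lowest compound level preventing growth seen by eye, and was given in μg/mL.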

[3] = tested on: E. coli 25922; test: as above; format: cell-based, Escherichia coli; settings: Escherichia coli; microbroth dilution; control Gram-negative E. coli 25922 strain; read-out: MIC, 25922
How it was run: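 Read-out: visual absence of growth. The lowest concentration meeting this gives the MIC, expressed in μg/mL, with microbroth dilution as the method.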

[4] = tested on: E. coli LZ3111; test: Antibacterial activity, MIC, quinolone resistant strain (Table 2); format: cell-based; settings: Escherichia coli, LZ3111, read-out: MIC LZ3111
How it was run: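 Microbroth dilution method; MIC (μg/mL) is the lowest drug concentration preventing macroscopically visible growth under test conditions.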

[5] = tested on: E. coli ELZ4000; test: Antibacterial activity, MIC, multi-drug resistant clinical isolate (Table 3); format: cell-based; settings: Escherichia coli, ELZ4000, read-out: MIC ELZ4000
How it was run: (§1)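 Broth microdilution assay; MIC reported in μg/mL as the lowest drug concentration preventing macroscopically visible growth under test conditions.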

[6] = tested on: E. coli ELZ4251; test: as above; format: cell-based; settings: Escherichia coli
How it was run: as §1

[7] = tested on: Acinetobacter baumannii (A. baumannii) BAA747; test: Antibacterial activity, MIC (Table 4); format: cell-based; settings: A. baumannii BAA747, read-out: MIC, BAA747
How it was run: (§2)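 The resistant panel comprises multi-drug resistant clinical isolates. All strains were tested by microbroth dilution, with the MIC in μg/mL taken as the lowest concentration that prevented macroscopically visible growth.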

[8] = tested on: Klebsiella pneumoniae (K. pneumoniae) 35657; test: Antibacterial activity, MIC (Table 4); format: cell-based; settings: K. pneumoniae 35657, read-out: MIC, 35657
How it was run: as §2

[9] = tested on: A. baumannii MXX2240; test: Antibacterial activity, MIC, resistant strain (Table 4); format: cell-based; settings: Acinetobacter baumannii, MXX2240; resistant A. baumannii MMX2240, multi-drug resistant clinical isolate; read-out: MIC, MMX2240
How it was run: as §2

[10] = tested on: K. pneumoniae MXX1232; test: as above; format: cell-based; settings: Klebsiella pneumoniae, MXX1232; resistant K. pneumoniae MMX1232, multi-drug resistant clinical isolate; read-out: MIC, MMX1232
How it was run: as §2

[11] = tested on: Pseudomonas aeruginosa (P. aeruginosa) 27853; test: Antibacterial activity, MIC (Table 5); format: cell-based; settings: P. aeruginosa 27853, read-out: MIC, 27853
How it was run: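 Activity was measured by microbroth dilution. The MIC, in μg/mL, is the lowest drug concentration that prevents macroscopically visible growth under the test conditions.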

[12] = tested on: Haemophilus influenzae (H. influenzae) 49247; test: Antibacterial activity, MIC (Table 6); format: cell-based
How it was run: (§3)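 Values are minimum inhibitory concentrations in μg/mL, read as the lowest compound concentration at which no growth is visible to the eye. Testing used a microbroth dilution format.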

[13] = tested on: Moraxella catarrhalis (M. catarrhalis) 25238; test: Antibacterial activity, MIC (Table 7); format: cell-based
How it was run: as §3

[14] = tested on: Neisseria meningitidis (N. meningitidis) 13090; test: Antibacterial activity, MIC (Table 8); format: cell-based
How it was run: as §3

| SMILES | MIC [1] | MIC [2] | MIC [3] | MIC [4] | MIC [5] | MIC [6] | MIC [7] | MIC [8] | MIC [9] | MIC [10] | MIC [11] | MIC [12] | MIC [13] | MIC [14] |
| --- | --- | --- | --- | --- | --- | --- | --- | --- | --- | --- | --- | --- | --- | --- |
| CCc1c(-c2ccc3c(c2)cc(CN2CC(O)C2)n3C)[nH]c(=O)c(C(=O)O)c1O [Cpd 187, 5-ethyl-4-hydroxy-6-(2-((3-hydroxyazetidin-1-yl)methyl)-1-methyl-1H-indol-5-yl)-2-oxo-1,2-dihydropyridine-3-carboxylic acid] | < 1 µg/mL | 12.5 to 150 µg/mL (≈ 31.5 to 377 µM) | < 1 µg/mL | 1 to 3.5 µg/mL (≈ 2.52 to 8.81 µM) | 12.5 to 150 µg/mL (≈ 31.5 to 377 µM) | 3.5 to 12.5 µg/mL (≈ 8.81 to 31.5 µM) | 1 to 3.5 µg/mL (≈ 2.52 to 8.81 µM) | 1 to 3.5 µg/mL (≈ 2.52 to 8.81 µM) | 12.5 to 150 µg/mL (≈ 31.5 to 377 µM) | 12.5 to 150 µg/mL (≈ 31.5 to 377 µM) | 3.5 to 12.5 µg/mL (≈ 8.81 to 31.5 µM) | < 1 µg/mL | < 1 µg/mL | < 1 µg/mL |
| CCc1c(-c2ccc3c(c2)cc(CN(C)CC2CC2)n3C)[nH]c(=O)c(C(=O)O)c1O.Cl [Cpd 210, 6-(2-(((cyclopropylmethyl)(methyl)amino)methyl)-1-methyl-1H-indol-5-yl)-5-ethyl-4-hydroxy-2-oxo-1,2-dihydropyridine-3-carboxylic acid hydrochloride] | < 1 µg/mL | 3.5 to 12.5 µg/mL | < 1 µg/mL | 3.5 to 12.5 µg/mL | 12.5 to 150 µg/mL | 3.5 to 12.5 µg/mL | 1 to 3.5 µg/mL | 3.5 to 12.5 µg/mL | 12.5 to 150 µg/mL | 12.5 to 150 µg/mL | 12.5 to 150 µg/mL | 1 to 3.5 µg/mL | < 1 µg/mL | < 1 µg/mL |
| CCc1c(-c2ccc3c(c2)cc(CNC(C)(C)C)n3C)[nH]c(=O)c(C(=O)O)c1O [Cpd 193, 6-(2-((tert-butylamino)methyl)-1-methyl-1H-indol-5-yl)-5-ethyl-4-hydroxy-2-oxo-1,2-dihydropyridine-3-carboxylic acid] | < 1 µg/mL | 3.5 to 12.5 µg/mL (≈ 8.81 to 31.4 µM) | < 1 µg/mL | 3.5 to 12.5 µg/mL (≈ 8.81 to 31.4 µM) | 3.5 to 12.5 µg/mL (≈ 8.81 to 31.4 µM) | 3.5 to 12.5 µg/mL (≈ 8.81 to 31.4 µM) | < 1 µg/mL | < 1 µg/mL | 1 to 3.5 µg/mL (≈ 2.52 to 8.81 µM) | 12.5 to 150 µg/mL (≈ 31.4 to 377 µM) | 3.5 to 12.5 µg/mL (≈ 8.81 to 31.4 µM) | < 1 µg/mL | < 1 µg/mL | < 1 µg/mL |
| CCc1c(-c2ccc3c(c2)cc(CC2CC2C)n3C)[nH]c(=O)c(C(=O)O)c1O.Cl (stereo not drawn) [Cpd 240, 5-ethyl-4-hydroxy-6-(1-methyl-2-((2-methylcyclopropyl)methyl)-1H-indol-5-yl)-2-oxo-1,2-dihydropyridine-3-carboxylic acid hydrochloride] | < 1 µg/mL | 3.5 to 12.5 µg/mL | < 1 µg/mL | 3.5 to 12.5 µg/mL | 12.5 to 150 µg/mL | 3.5 to 12.5 µg/mL | < 1 µg/mL | < 1 µg/mL | 1 to 3.5 µg/mL | 12.5 to 150 µg/mL | 3.5 to 12.5 µg/mL | < 1 µg/mL | < 1 µg/mL | < 1 µg/mL |
| CCc1c(-c2ccc3c(c2)cc(CN2CCC2)n3C)[nH]c(=O)c(C(=O)O)c1O [Cpd 186, 6-(2-(azetidin-1-ylmethyl)-1-methyl-1H-indol-5-yl)-5-ethyl-4-hydroxy-2-oxo-1,2-dihydropyridine-3-carboxylic acid] | < 1 µg/mL | 3.5 to 12.5 µg/mL (≈ 9.18 to 32.8 µM) | < 1 µg/mL | 1 to 3.5 µg/mL (≈ 2.62 to 9.18 µM) | 3.5 to 12.5 µg/mL (≈ 9.18 to 32.8 µM) | 3.5 to 12.5 µg/mL (≈ 9.18 to 32.8 µM) | < 1 µg/mL | < 1 µg/mL | 1 to 3.5 µg/mL (≈ 2.62 to 9.18 µM) | 12.5 to 150 µg/mL (≈ 32.8 to 393 µM) | 3.5 to 12.5 µg/mL (≈ 9.18 to 32.8 µM) | < 1 µg/mL | < 1 µg/mL | 3.5 to 12.5 µg/mL (≈ 9.18 to 32.8 µM) |
| CCc1c(-c2ccc3c(c2)cc(CN2CC(N(C)C)C2)n3C)[nH]c(=O)c(C(=O)O)c1O [Cpd 189, 6-(2-((3-(dimethylamino)azetidin-1-yl)methyl)-1-methyl-1H-indol-5-yl)-5-ethyl-4-hydroxy-2-oxo-1,2-dihydropyridine-3-carboxylic acid] | < 1 µg/mL | 3.5 to 12.5 µg/mL (≈ 8.24 to 29.4 µM) | 1 to 3.5 µg/mL (≈ 2.36 to 8.24 µM) | 3.5 to 12.5 µg/mL (≈ 8.24 to 29.4 µM) | 12.5 to 150 µg/mL (≈ 29.4 to 353 µM) | 3.5 to 12.5 µg/mL (≈ 8.24 to 29.4 µM) | 1 to 3.5 µg/mL (≈ 2.36 to 8.24 µM) | 1 to 3.5 µg/mL (≈ 2.36 to 8.24 µM) | 12.5 to 150 µg/mL (≈ 29.4 to 353 µM) | 12.5 to 150 µg/mL (≈ 29.4 to 353 µM) | 12.5 to 150 µg/mL (≈ 29.4 to 353 µM) | < 1 µg/mL | < 1 µg/mL | < 1 µg/mL |
